biological target: T1, PDE4B (Homo sapiens, UniProt Q07343); assay: PDE4 IMAP Assay; type: biochemical; conditions: catalytic domain of PDE4B, fluorescence polarization
T1 construct: hexa-histidine (His6) (N); made in house
Text: Compounds may be screened for functional potency in in vitro biochemical assays for their ability to inhibit the activity of phosphodiesterase (PDE) enzymes. A commercial PDE assay, Molecular Device's PDE IMAP assay, was modified and utilized to measure the inhibitory activity of compounds on PDE isoforms. The IMAP technology is based on the high affinity binding of phosphate by immobilized metal (MIII) coordination complexes on nanoparticles. This IMAP “binding reagent” complexes with phosphate groups on the nucleotide monophosphates generated in the reaction. Such binding causes a change in the rate of the molecular motion of the nucleotide, and results in an increase in the fluorescence polarization value observed for the fluorescent label attached to the substrate. PDE inhibitors prevent the generation of nucleotide monophosphates and the subsequent increase in polarization value observed for the fluorescent label attached to the substrate. The catalytic domain of PDE4B was fused to an amino-terminus hex-histadine affinity tag and purified. PDE4B enzyme was incubated with compounds for 10 minutes. Fluorescently labeled cyclic AMP substrates were then added to the PDE enzyme mix and incubated for 2 hours at room temperature. IMAP binding reagent was then added to the enzyme mix, incubated for 10-30 minutes and fluorescent polarization of the fluorescently labeled substrate was read either with the Perkin Elmer Viewlux or Molecular Devices Acquest or Analyst. Roflumilast and Rolipram are the positive controls used in the assay.

T1 sequence (Q07343 330-659 limits assumed, species assumed): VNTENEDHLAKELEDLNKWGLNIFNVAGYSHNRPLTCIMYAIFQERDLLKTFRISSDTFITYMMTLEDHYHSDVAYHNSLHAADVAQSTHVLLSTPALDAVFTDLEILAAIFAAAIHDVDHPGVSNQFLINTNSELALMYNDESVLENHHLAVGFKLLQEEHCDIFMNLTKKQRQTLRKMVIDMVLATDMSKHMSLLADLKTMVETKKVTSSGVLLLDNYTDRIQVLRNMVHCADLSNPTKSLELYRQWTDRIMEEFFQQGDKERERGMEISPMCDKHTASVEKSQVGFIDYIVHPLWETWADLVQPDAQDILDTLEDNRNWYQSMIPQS

SMILES	inhibition at 10 µM
COc1ccc(C2=NN(C(=O)c3cccs3)C(c3ccccc3Cl)C2)cc1OC (stereo not shown) [Example 39, (5-(2-chlorophenyl)-3-(3,4-dimethoxyphenyl)-4,5-dihydro-1H-pyrazol-1-yl)(thiophen-2-yl)methanone]	< 50%
COc1ccc2cc(C3CC(c4ccc(OC)c(OC)c4)=NN3C(=O)c3ccco3)c(Cl)nc2c1 (stereo not shown) [Example 10, (5-(2-chloro-7-methoxyquinolin-3-yl)-3-(3,4-dimethoxyphenyl)-4,5-dihydro-1H-pyrazol-1-yl)(furan-2-yl)methanone]	< 50%
COc1ccc2cc(C3CC(c4ccc(OC)c(OC)c4)=NN3C(=O)CCCC(=O)O)c(Cl)nc2c1 (stereo not shown) [Example 17, 5-(5-(2-chloro-7-methoxyquinolin-3-yl)-3-(3,4-dimethoxyphenyl)-4,5-dihydro-1H-pyrazol-1-yl)-5-oxopentanoic acid]	< 50%
COc1ccc(C2=NN(C(=O)CCCC(=O)O)C(c3ccc(Cl)cc3)C2)cc1OC (stereo not shown) [Example 95, 5-(5-(4-chlorophenyl)-3-(3,4-dimethoxyphenyl)-4,5-dihydro-1H-pyrazol-1-yl)-5-oxopentanoic acid]	< 50%
COc1ccc(C2CC(c3ccc(OC)c(OC)c3)=NN2C(=O)CCCC(=O)O)cc1 (stereo not shown) [Example 66, 5-(3-(3,4-dimethoxyphenyl)-5-(4-methoxyphenyl)-4,5-dihydro-1H-pyrazol-1-yl)-5-oxopentanoic acid]	< 50%
CCc1ccc(C2CC(c3ccc(OC)c(OC)c3)=NN2C(=O)CCC(=O)O)cc1 (stereo not shown) [Example 19, 4-(3-(3,4-dimethoxyphenyl)-5-(4-ethylphenyl)-4,5-dihydro-1H-pyrazol-1-yl)-4-oxobutanoic acid]	< 50%
COc1ccc(C2=NN(C(=O)CCCC(=O)O)C(c3ccccc3Cl)C2)cc1OC (stereo not shown) [Example 67, 5-(5-(2-chlorophenyl)-3-(3,4-dimethoxyphenyl)-4,5-dihydro-1H-pyrazol-1-yl)-5-oxopentanoic acid]	< 50%
COc1ccc(C2=NN(C(C)=O)C(c3cc4ccccc4nc3Cl)C2)cc1OC (stereo not shown) [Example 28, 1-(5-(2-chloroquinolin-3-yl)-3-(3,4-dimethoxyphenyl)-4,5-dihydro-1H-pyrazol-1-yl)ethanone]	< 50%
COc1ccc(C2CC(c3ccc(OC)c(OC)c3)=NN2C(=O)c2ccccc2Cl)cc1 (stereo not shown) [Example 33, (2-chlorophenyl)(3-(3,4-dimethoxyphenyl)-5-(4-methoxyphenyl)-4,5-dihydro-1H-pyrazol-1-yl)methanone]	≥ 50%
COc1ccc(C2=NN(C(=O)c3ccccc3Cl)C(c3ccc(C)cc3)C2)cc1OC (stereo not shown) [Example 32, (2-chlorophenyl)(3-(3,4-dimethoxyphenyl)-5-p-tolyl-4,5-dihydro-1H-pyrazol-1-yl)methanone]	< 50%
COc1ccc(C2=NN(C(=O)c3cc(OC)c(OC)c(OC)c3)C(c3ccc(Cl)cc3)C2)cc1OC (stereo not shown) [Example 43, (5-(4-chlorophenyl)-3-(3,4-dimethoxyphenyl)-4,5-dihydro-1H-pyrazol-1-yl)(3,4,5-trimethoxyphenyl)methanone]	≥ 50%
CCC(=O)N1N=C(c2ccc(OC)c(OC)c2)CC1c1cc2cc(OC)ccc2nc1Cl (stereo not shown) [Example 8, 1-(5-(2-chloro-6-methoxyquinolin-3-yl)-3-(3,4-dimethoxyphenyl)-4,5-dihydro-1H-pyrazol-1-yl)propan-1-one]	< 50%
COc1ccc(C2=NN(S(=O)(=O)c3ccccc3)C(c3ccc(OC)c(OC)c3)C2)cc1OC (stereo not shown) [Example 86, 3,5-bis(3,4-dimethoxyphenyl)-1-(phenylsulfonyl)-4,5-dihydro-1H-pyrazole]	≥ 50%
COc1ccc(C2=NN(C(=O)c3cc(OC)c(OC)c(OC)c3)C(c3ccc(Br)cc3)C2)cc1OC (stereo not shown) [Example 44, (5-(4-bromophenyl)-3-(3,4-dimethoxyphenyl)-4,5-dihydro-1H-pyrazol-1-yl)(3,4,5-trimethoxyphenyl)methanone]	≥ 50%
CCc1ccc(C2CC(c3ccc(OC)c(OC)c3)=NN2C(C)=O)cc1 (stereo not shown) [Example 21, 1-(3-(3,4-dimethoxyphenyl)-5-(4-ethylphenyl)-4,5-dihydro-1H-pyrazol-1-yl)ethanone]	< 50%
COc1ccc2cc(C3CC(c4ccc(OC)c(OC)c4)=NN3C(C)=O)c(Cl)nc2c1 (stereo not shown) [Example 23, 1-(5-(2-chloro-7-methoxyquinolin-3-yl)-3-(3,4-dimethoxyphenyl)-4,5-dihydro-1H-pyrazol-1-yl)ethanone]	< 50%
COc1ccc(OC)c(C2CC(c3ccc(OC)c(OC)c3)=NN2C(=O)CCCC(=O)O)c1 (stereo not shown) [Example 64, 5-(5-(2,5-dimethoxyphenyl)-3-(3,4-dimethoxyphenyl)-4,5-dihydro-1H-pyrazol-1-yl)-5-oxopentanoic acid]	< 50%
COc1ccc(C2=NN(S(=O)(=O)c3ccc(C)cc3)C(c3ccc(OC)c(OC)c3)C2)cc1OC (stereo not shown) [Example 87, 3,5-bis(3,4-dimethoxyphenyl)-1-tosyl-4,5-dihydro-1H-pyrazole]	< 50%

Now from value to molecule:

inhibition at 10 µM	SMILES
≥ 50%	COc1ccc(C2CC(c3ccc(OC)c(OC)c3)=NN2C(=O)c2ccccc2)cc1 (stereo not shown) [Example 36, (3-(3,4-dimethoxyphenyl)-5-(4-methoxyphenyl)-4,5-dihydro-1H-pyrazol-1-yl)(phenyl)methanone]
< 50%	COc1ccc(C2=NN(S(=O)(=O)c3ccc(C)cc3)C(c3ccc(C)cc3)C2)cc1OC (stereo not shown) [Example 57, 3-(3,4-dimethoxyphenyl)-5-p-tolyl-1-tosyl-4,5-dihydro-1H-pyrazole]
< 50%	COc1ccc2nc(Cl)c(C3CC(c4ccc(OC)c(OC)c4)=NN3C(=O)c3ccco3)cc2c1 (stereo not shown) [Example 9, (5-(2-chloro-6-methoxyquinolin-3-yl)-3-(3,4-dimethoxyphenyl)-4,5-dihydro-1H-pyrazol-1-yl)(furan-2-yl)methanone]
< 50%	COc1ccc(C2=NN(S(=O)(=O)c3ccccc3)C(c3ccccc3F)C2)cc1OC (stereo not shown) [Example 58, 3-(3,4-dimethoxyphenyl)-5-(2-fluorophenyl)-1-(phenylsulfonyl)-4,5-dihydro-1H-pyrazole]
< 50%	COc1ccc(C2=NN(C(C)=O)C(c3cccc(OC)c3OC)C2)cc1OC (stereo not shown) [Example 101, 1-(5-(2,3-dimethoxyphenyl)-3-(3,4-dimethoxyphenyl)-4,5-dihydro-1H-pyrazol-1-yl)ethanone]
< 50%	COc1ccc(C2=NN(C(=O)CCCC(=O)O)C(c3cccs3)C2)cc1OC (stereo not shown) [Example 1, 5-(3-(3,4-dimethoxyphenyl)-5-(thiophen-2-yl)-4,5-dihydro-1H-pyrazol-1-yl)-5-oxopentanoic acid]
< 50%	COc1ccc(C2=NN(C(=O)CCC(=O)O)C(c3cc4ccccc4nc3Cl)C2)cc1OC (stereo not shown) [Example 27, 4-(5-(2-chloroquinolin-3-yl)-3-(3,4-dimethoxyphenyl)-4,5-dihydro-1H-pyrazol-1-yl)-4-oxobutanoic acid]
< 50%	COc1ccc(C2=NN(S(C)(=O)=O)C(c3ccc(C)cc3)C2)cc1OC (stereo not shown) [Example 13, 3-(3,4-dimethoxyphenyl)-1-(methylsulfonyl)-5-p-tolyl-4,5-dihydro-1H-pyrazole]
≥ 50%	COc1ccc(C2=NN(C(=O)c3cc(OC)c(OC)c(OC)c3)C(c3ccc(C)cc3)C2)cc1OC (stereo not shown) [Example 45, (3-(3,4-dimethoxyphenyl)-5-p-tolyl-4,5-dihydro-1H-pyrazol-1-yl)(3,4,5-trimethoxyphenyl)methanone]
< 50%	COc1ccc(C2CC(c3ccc(OC)c(OC)c3)=NN2C(=O)CCC(=O)O)cc1 (stereo not shown) [Example 97, 4-(3-(3,4-dimethoxyphenyl)-5-(4-methoxyphenyl)-4,5-dihydro-1H-pyrazol-1-yl)-4-oxobutanoic acid]
< 50%	COc1ccc(C2=NN(C(=O)c3ccccc3)C(c3ccc(N(C)C)cc3)C2)cc1OC (stereo not shown) [Example 37, (3-(3,4-dimethoxyphenyl)-5-(4-(dimethylamino)phenyl)-4,5-dihydro-1H-pyrazol-1-yl)(phenyl)methanone]
< 50%	COc1ccc(C2=NN(S(C)(=O)=O)C(c3cccc(OC)c3OC)C2)cc1OC (stereo not shown) [Example 11, 5-(2,3-dimethoxyphenyl)-3-(3,4-dimethoxyphenyl)-1-(methylsulfonyl)-4,5-dihydro-1H-pyrazole]
< 50%	COc1ccc(C2=NN(S(=O)(=O)c3ccc(C)cc3)C(c3cn(-c4ccccc4)nc3-c3ccccc3)C2)cc1OC (stereo not shown) [Example 24, 4-(3-(3,4-dimethoxyphenyl)-1-tosyl-4,5-dihydro-1H-pyrazol-5-yl)-1,3-diphenyl-1H-pyrazole]
< 50%	COc1ccc(C2=NN(S(=O)(=O)c3ccc(C)cc3)C(c3ccccc3)C2)cc1OC (stereo not shown) [Example 62, 3-(3,4-dimethoxyphenyl)-5-phenyl-1-tosyl-4,5-dihydro-1H-pyrazole]
< 50%	COc1ccc(C2=NN(S(=O)(=O)c3ccc(C)cc3)C(c3ccc(F)cc3)C2)cc1OC (stereo not shown) [Example 55, 3-(3,4-dimethoxyphenyl)-5-(4-fluorophenyl)-1-tosyl-4,5-dihydro-1H-pyrazole]
< 50%	COc1ccc(C2=NN(C(=O)CCCC(=O)O)C(c3cccc(OC)c3OC)C2)cc1OC (stereo not shown) [Example 94, 5-(5-(2,3-dimethoxyphenyl)-3-(3,4-dimethoxyphenyl)-4,5-dihydro-1H-pyrazol-1-yl)-5-oxopentanoic acid]

From patent US20100105729A1, “ARYL-SUBSTITUTED HETEROCYCLIC PDE4 INHIBITORS AS ANTI-INFLAMMATORY AGENTS” (KALYPSYS, INC., priority 2006, published 2010)
